Patent US20240197670A1, “TREATMENT OF HERPES ZOSTER WITH TOPICAL TETRACAINE” (PAGARI LIFE SCIENCE CORP, priority 2022, published 2024)

Experiments:
[1] = test system: VZV-ORF57-Luc (Varicella Zoster Virus) in adult human skin; assay: Antiviral evaluation against VZV in skin organ culture (SOC), bioluminescence VZV yield as fold change; type: cell-based
Description: The goal of this study was to evaluate the effect of tetracaine against VZV in a skin organ culture (SOC) model and to determine an appropriate duration of treatment in skin to prevent VZV spread. Tetracaine, either the formulation of Example 2 or the formulation of Example 7, was tested as a topical treatment (formulated in the vehicle of Example 7) against VZV infections. Control formulations (cidofovir, CDV) were formulated in cocoa butter.
(§1) Adult human skin from a reduction mammoplasty was cleaned and cut to a thickness of 1 mm, maintaining normal skin architecture while removing underlying adipose and some of the subdermal and connective tissue. Skin was inoculated by scarification with VZV-ORF57-Luc (cell-associated virus, from a frozen stock). VZV-ORF57-Luc expresses firefly luciferase. Infected skin was placed on NetWells, which are designed to hold skin at the air-liquid interface. This orientation keeps the epidermis in contact with the air so it remains dry, while the dermis remains moist and in contact with the medium. Infected skin was scanned by IVIS Spectrum on DPI (Day Post Inoculation) 1 and 3, and prior to treatment being initiated. All treatments were started on DPI 3, but removed after different amounts of time, including after 8, 24, 48, or 72 hours. All compounds were formulated in either the test vehicle or cocoa butter (cidofovir, CDV) and applied directly to the epidermis. To remove treatment, the compound was gently wiped off the surface of the skin, and the entire skin explant was submerged and gently swirled in phosphate-buffered saline (PBS) for a few seconds to remove any residue. The topical treatment was removed prior to imaging by gently wiping it off the epidermis.
FIGS. 4A-4D show VZV yield as fold change, which was calculated as the total flux (photons/sec) normalized to DPI 1 for each skin explant. Imaging started on DPI 1 and was performed every day or every other day starting on DPI 3, depending on the group. In FIGS. 4A-4D, the treatment period is highlighted by a gray box. […]

[2] = test system: Adult human skin; assay: Skin appearance / toxicity in skin organ culture; type: cell-based; details: for skin color change: skin treated for 48 or 72 hours, more intense in 72 hour group, only where applied
Excerpt: as §1
In this study, tetracaine was placed as a small drop in the center of the skin. A color change in the skin treated for 48 or 72 hours was observed, with more intense coloring in the 72 hour group. […] Each row in FIG. 5 depicts the same piece of skin over the course of the assay.

[3] = cited from earlier work

Question: With `Nc1ccn(C[C@@H](CO)OCP(=O)(O)O)c(=O)n1` [CDV, cidofovir] as the compound, how does the “virus spread compared to cocoa butter vehicle” value ([1]; formulated in cocoa butter, by end of treatment phase (FIG. 4D, 72 hours), Student's t-test p<0.01) read?
Answer: significantly lower virus spread

Question: And the skin color change [2]?
Answer: No color change

Question: Which “effect against VZV-infected skin as a topical treatment (study conclusion)” value ([1]; skin organ culture) does the source give for `CCCCNc1ccc(C(=O)OCCN(C)C)cc1` [Tetracaine] here?
Answer: highly effective

Question: And the “effect on VZV yield vs test vehicle” value ([1]; topical treatments of 24-72 hours started DPI 3, one-way ANOVA)?
Answer: highly effective

Question: And the “toxicity to the skin” value ([2]; low bioluminescent signals in treated explants even after 3 days)?
Answer: not toxic to the skin

Question: What about the skin color change [2] of the same compound?
Answer: color change

Question: What about the “solubility in alcohol, ether, benzene and chloroform” value ([3]; alcohol, ether, benzene, chloroform) of the same compound?
Answer: soluble

Question: What about the solubility in water ([3]; water) of the same compound?
Answer: very slightly soluble
